Test results from patent publication US12636368B2, “Ionizable lipids for nucleic acid delivery” (Global Life Sciences Solutions Canada ULC, priority 2019, dated 2026).
Where two headings read alike, the source gives them in different places.

Assays:
[1] = TNS assay, surface pKa of lipid nanoparticles; type: physicochemical
Description: In embodiments of the invention, the experimental pKa of formulated lipid nanoparticles comprising lipids in Table 1 is calculated using the 2-(p-toluidinyl)naphthalene-6-sulfonic acid (TNS) assay. The procedure for the TNS assay is described in Example 25.
The pKa of each cationic lipid was determined in lipid nanoparticles using an assay based on fluorescence of 6-(p-Toluidino)-2-naphthalenesulfonic acid sodium salt (TNS, Sigma Aldrich), which is a fluorescent probe for the conformational state of proteins5. Empty lipid nanoparticles comprising ionizable lipid in LM02 composition in distilled water at a concentration of 3.125 mM total lipid are formulated using NanoAssemblr® Spark™, and were then was characterized for LNP quality on the Zetasizer™ using a 30× dilution with 1×PBS in the low volume cuvette. Lipid nanoparticles were further diluted 4× using distilled water to 0.781 mM total lipid. TNS was prepared as a 25 μM stock solution in distilled water. Then 6.4 μL of diluted LNP samples of 0.781 mM total lipid were mixed with 10 μL of diluted TNS to a final volume of 250 μL with buffer containing 10 mM HEPES, 10 mM MES, 10 mM NH4OAc and 130 mM NaCl where the pH ranged from 3 to 9 in 0.5 pH increments.
Samples were mixed thoroughly, and the fluorescence intensity was measured at room temperature in a BioTek™ Synergy™ H1 Hybrid Multi-Mode Monochromator™ Fluorescence Microplate Reader using excitation and emission wavelengths of 321 nm and 445 nm respectively. A sigmoidal best fit analysis was applied to the fluorescence data using GraphPad Prism™ software, and the pKa was measured as the pH at half-maximal fluorescence intensity.

[2] = system: isolated primary human T cells; test: GFP mRNA-LNP transfection of primary human T cells, flow cytometry; type: cell-based; settings: for GFP Protein expression score: Human T cell: Table 8, star score, legend not given
Description: Reagents were from Stemcell Technologies unless otherwise stated. Tcells were isolated from a single donor. At 48 h following lipid particle mRNA exposure, the treated T cells were harvested by transferring the cell suspensions to pre-labeled 1.5 mL tubes and centrifuged 300×g at 4 degrees C. for 10 minutes. Supernatant was removed and the pellet resuspended in PBS. An amount of 0.5 ul of BD Horizon™ Fixable Viability Stain 575V™ (BD Biosciences), was added, and the mixture incubated in the dark for 10 minutes at RT. This stain binds to amines.
The cells were centrifuged again as before, then washed twice with 1 mL of stain buffer (BSA, BD Pharminigen), and the washed pellet was diluted in 100 μl BSA. The following antibodies were added to each tube of treated cells in 2 μl volumes: CD25, CD8, CD4, (PerCP-Cy™ 5.5 Mouse Anti Human CD25, BV786 Mouse Anti-Human CD8 Clone RPA-T8, APC-Cy™7 Mouse Anti-Human CD4 Clone SK3 (all from BD Pharmingen) with the exception of the controls: in the eGFP only sample and viability control, no antibody was added. In the single stain compensation tubes, only one antibody per tube was added.
The tubes were incubated at 4 degrees C. for 30 min, whereupon […] of stain buffer was added, and the cells were centrifuged again. Cells were washed once with 1 mL of stain buffer and spun down again as in step one. Cell pellets were resuspended in 1 mL of stain buffer and added to pre-labeled flow tubes with cell strainer caps (Corning Falcon). […]
GFP MFI was measured by flow cytometry 48 hours after LNP addition. T cells were isolated from whole blood using a negative isolation procedure (EasySep™ Human T Cell Isolation Kit, Stemcell Technologies). T cells were dosed with mRNA-LNPs 3 days after activation with 500 ng of encapsulated mRNA per 125,000 cells. The LNP were CT10 compositions with an N/P of 8. Transfection efficiency (upper graph) and MFI (lower graph) were measured by flow cytometry 48 h after LNP addition.

[3] = Nucleic acid encapsulation efficiency by RiboGreen assay; type: physicochemical
Description: Messenger RNA or plasmid NAT was diluted using sodium acetate buffer to the required concentration. Lipid nucleic acid particle samples were then prepared by running both fluids using the NanoAssemblr® Spark instrument. […] The lipid nucleic acid particles made in the instrument were immediately diluted down with 48 μL Ca and Mg free 1×PBS at pH 7.4 in the aqueous output well. These nucleic acid lipid particles were immediately collected into microcentrifuge tubes containing 96 μL of Ca and Mg free 1×PBS at pH 7.4. Encapsulation efficiency was measured by a modified Ribogreen™ assay (Quanti-iT RiboGreen™ RNA assay kit, Fisher). Observed particle attributes were generally sized from 60-200 nm for mRNA, depending on lipid composition and method of production.
(§1) Physical characteristics of lipid nanoparticle (LNP) compositions comprising compounds according to Formula (I) and that were manufactured on the NanoAssemblr® Spark and Benchtop, are shown in Tables 6 and 7 below. Size, size variation of the LNP (PDI), encapsulation efficiency, and pKa are shown. The physical characteristics of these LNP are important from a standpoint of stability, biodistribution, and cell membrane crossing. There was good encapsulation in all the formulations, with polydispersity (PDI) under 0.3. Size and PDI were measured using dynamic light scattering techniques, and nucleic acid encapsulation efficiency was calculated from a modified Quant-iT RiboGreen RNA assay.

[4] = LNP size and PDI by dynamic light scattering; type: physicochemical
Description: After the lipid particles were made as described supra, particle size (hydrodynamic diameter of the particles) was determined by Dynamic Light Scattering (DLS) using a ZetaSizer™ Nano ZS™ (Malvern Instruments, UK). He/Ne laser tuned to 633 nm wavelength was used as the light source. Data were measured from the scattered intensity data conducted in backscattering detection mode (measurement angle=173). Measurements were an average of 10 runs of two cycles each per sample. Z-Average size was reported as the particle size, and is defined as the harmonic intensity averaged particle diameter.
as §1

[5] = Table 1, formulated lipid nanoparticles, TNS assay, read-out: Exp. pKa
[6] = Table 7, EPO mRNA LNPs, LM02, N/P 6
[7] = Table 6, GFP-encoded LNPs, CT10, N/P 8

CCCCCCCCCCCCCC(=O)O[C@@H]1[C@@H](OC(=O)CCCCCCCCCCCCC)CO[C@@H]1COC(=O)CCCCN(C)C (racemic) [PNI 120]
pKa [1, 5]: 7.71
pKa ([1]; Table 8, read-out: Exp.pKa): 7.7
GFP Protein expression score: Human T cell [2]: Toxic

CCCCC/C=C\C/C=C\CCCCCCCC(=O)O[C@@H]1[C@@H](OC(=O)CCCCCCC/C=C\C/C=C\CCCCC)CO[C@@H]1COC(=O)CCCCN(C)C (racemic) [PNI 122]
pKa [1, 5]: 7.45
pKa ([1]; Table 8, read-out: Exp.pKa): 7.45
Encapsulation Efficiency (%) [3, 6]: 99.3%
Diameter (Z. ave, nm) [4, 6]: 102.4 nm
Polydispersity Index (PDI) [4, 6]: 0.15
GFP Protein expression score: Human T cell [2]: Toxic

CCCCC/C=C\C/C=C\CCCCCCCC(=O)O[C@@H]1[C@@H](OC(=O)CCCCCCC/C=C\C/C=C\CCCCC)CO[C@@H]1COC(=O)CCN(C)C (racemic) [PNI 321]
pKa [1, 5]: 5.62
pKa ([1]; Table 8, read-out: Exp.pKa): 5.62
Encapsulation Efficiency (%) [3, 7]: 92.4%
Encapsulation Efficiency (%) [3, 6]: 94.9%
Diameter (Z. ave, nm) [4, 7]: 68.6 nm
Polydispersity Index (PDI) [4, 7]: 0.07
Diameter (Z. ave, nm) [4, 6]: 60.0 nm
Polydispersity Index (PDI) [4, 6]: 0.09

CCCCC/C=C\C/C=C\CCCCCCCC(=O)O[C@@H]1[C@@H](OC(=O)CCCCCCC/C=C\C/C=C\CCCCC)CO[C@@H]1COC(=O)Cc1cn(C)cn1 (racemic) [PNI 336]
pKa [1, 5]: 4.57
pKa ([1]; Table 8, read-out: Exp.pKa): 4.57
Encapsulation Efficiency (%) [3, 7]: 86.6%
Encapsulation Efficiency (%) [3, 6]: 89.8%
Diameter (Z. ave, nm) [4, 7]: 79.6 nm
Polydispersity Index (PDI) [4, 7]: 0.07
Diameter (Z. ave, nm) [4, 6]: 64.3 nm
Polydispersity Index (PDI) [4, 6]: 0.06

CCCCCCCCC1CC1CCCCCCCC(=O)O[C@@H]1[C@@H](OC(=O)CCCCCCCC2CC2CCCCCCCC)CO[C@@H]1COC(=O)CCN(C)C (mixture of isomers) [PNI 342]
pKa [1, 5]: 6.11
pKa ([1]; Table 8, read-out: Exp.pKa): 6.11
Encapsulation Efficiency (%) [3, 6]: 97.2%
Diameter (Z. ave, nm) [4, 6]: 58.2 nm
Polydispersity Index (PDI) [4, 6]: 0.04

CCCCCCCCCCCC(=O)O[C@@H]1[C@@H](OC(=O)CCCCCCCCCCC)CO[C@@H]1COC(=O)CCN(C)C (racemic) [PNI 534]
pKa [1, 5]: 6.42
pKa ([1]; Table 8, read-out: Exp.pKa): 5.97
Encapsulation Efficiency (%) [3, 7]: 49.3%
Encapsulation Efficiency (%) [3, 6]: 89.4%
Diameter (Z. ave, nm) [4, 7]: 107.1 nm
Polydispersity Index (PDI) [4, 7]: 0.29
Diameter (Z. ave, nm) [4, 6]: 75.0 nm
Polydispersity Index (PDI) [4, 6]: 0.15

CCCCCCCCC(CCCCCC)C(=O)O[C@@H]1[C@@H](OC(=O)C(CCCCCC)CCCCCCCC)CO[C@@H]1COC(=O)CCN(C)C (mixture of isomers) [PNI 535]
pKa [1, 5]: 4.99
pKa ([1]; Table 8, read-out: Exp.pKa): 4.99
Encapsulation Efficiency (%) [3, 7]: 91.7%
Encapsulation Efficiency (%) [3, 6]: 82.2%
Diameter (Z. ave, nm) [4, 7]: 133.1 nm
Polydispersity Index (PDI) [4, 7]: 0.07
Diameter (Z. ave, nm) [4, 6]: 54.2 nm
Polydispersity Index (PDI) [4, 6]: 0.11
GFP Protein expression score: Human T cell [2]: Not Active

CCCCC/C=C\C/C=C\CCCCCCCC(=O)O[C@@H]1[C@@H](OC(=O)CCCCCCC/C=C\C/C=C\CCCCC)CO[C@@H]1COC(=O)CC1CCN(C)C1 (mixture of isomers) [PNI 538]
pKa [1, 5]: 6.79
pKa ([1]; Table 8, read-out: Exp.pKa): 6.79
Encapsulation Efficiency (%) [3, 6]: 98.7%
Diameter (Z. ave, nm) [4, 6]: 67.0 nm
Polydispersity Index (PDI) [4, 6]: 0.11

CCCCC/C=C\C/C=C\CCCCCCCC(=O)O[C@H]1COC(COC(=O)CN2CCN(C)CC2)[C@@H]1OC(=O)CCCCCCC/C=C\C/C=C\CCCCC (mixture of isomers) [PNI 574]
pKa [1, 5]: 6.66

CCCCC/C=C\C/C=C\CCCCCCCC(=O)O[C@H]1COC(COC(=O)C23CCN(CC2)CC3)[C@@H]1OC(=O)CCCCCCC/C=C\C/C=C\CCCCC (stereo in doubt) [PNI 573]
pKa [1, 5]: 7.79

CCCCC/C=C\C/C=C\CCCCCCCC(=O)O[C@H]1COC(COC(=O)C2CCCN(C)C2)[C@@H]1OC(=O)CCCCCCC/C=C\C/C=C\CCCCC (stereo in doubt) [PNI 575]
pKa [1, 5]: 5.51

CCCCCCCCC1CC1CCCCCCCC(=O)O[C@@H]1[C@@H](OC(=O)CCCCCCCC2CC2CCCCCCCC)CO[C@@H]1COC(=O)C1CCN(C2CC2)CC1 (stereo in doubt) [PNI 576]
pKa [1, 5]: 4.24

CCCCCCCCC1CC1CCCCCCCC(=O)O[C@@H]1[C@@H](OC(=O)CCCCCCCC2CC2CCCCCCCC)CO[C@@H]1COC(=O)C1CCN(CC)CC1 (stereo in doubt) [PNI 577]
pKa [1, 5]: 6.45

CCCCCCCCC1CC1CCCCCCCC(=O)O[C@@H]1[C@@H](OC(=O)CCCCCCCC2CC2CCCCCCCC)CO[C@@H]1COC(=O)CC1CCCCN1C (stereo in doubt) [PNI 578]
pKa [1, 5]: 5.87

CCCCCCCCC(CCCCCC)C(=O)O[C@@H]1[C@@H](OC(=O)C(CCCCCC)CCCCCCCC)CO[C@@H]1COC(=O)C1(C)CCN(C)CC1 (stereo in doubt) [PNI 579]
pKa [1, 5]: 5.32

CCCCCCCCC(CCCCCC)C(=O)O[C@@H]1[C@@H](OC(=O)C(CCCCCC)CCCCCCCC)CO[C@@H]1COC(=O)CCCN(C)C (stereo in doubt) [PNI 580]
pKa [1, 5]: 5.69

CCCCCCCCCCCCCC(=O)O[C@@H]1[C@@H](OC(=O)CCCCCCCCCCCCC)CO[C@@H]1COC(=O)CCN(C)C [PNI 344]
pKa [1, 5]: 6.93
pKa ([1]; Table 8, read-out: Exp.pKa): 6.93

CCCCCC/C=C\COC(=O)CCCCCCC(=O)O[C@@H]1[C@@H](OC(=O)CCCCCCC(=O)OC/C=C\CCCCCC)CO[C@@H]1COC(=O)CCN(C)C [PNI 532]
pKa [1, 5]: 5.97
pKa ([1]; Table 8, read-out: Exp.pKa): 5.97
Encapsulation Efficiency (%) [3, 6]: 37.3%
Diameter (Z. ave, nm) [4, 6]: 144.3 nm
Polydispersity Index (PDI) [4, 6]: 0.15

CC/C=C\CC1C(CC(=O)OCCC(CCCCCCCC)OC(=O)C(CCCCCC)CCCCCCCC)CCC1OC(=O)C1(C)CCN(C)CC1 (centres unmarked) [PNI-565]
amount of protein produced (MFIs) compared with MC3 [2]: better than MC3
